Data taken from PMC3701070 (PLoS ONE, 2013).

Experiments:
Experiment in all cases: Cell growth assay
Format in all cases: cell-based
A673 = conditions: Homo sapiens, 72 h; A673, BRAF(V600E), RAS WT, 3-day; read-out: gIC50
Summary of the method: (§1)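 Baseline plates measured at t = 0; treated plates measured at 72 h via CellTiter-Glo. Values = IC50 for growth inhibition.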

ARH-77 = conditions: Homo sapiens, 72 h; ARH-77, RAF WT, RAS WT, 3-day; read-out: gIC50
Summary of the method: as §1

BFTC-905 = conditions: Homo sapiens, 72 h; BFTC-905, RAF WT, NRAS(Q61L), 3-day; read-out: gIC50
Summary of the method: as §1

BxPc3 = conditions: Homo sapiens, BXPC-3, 72 h; BxPc3, RAF WT, RAS WT, 3-day; read-out: gIC50
Summary of the method: as §1

C33A = conditions: Homo sapiens, C-33-A, 72 h, RAF WT, RAS WT, 3-day, read-out: gIC50
Summary of the method: as §1

C3A = conditions: Homo sapiens, 72 h, RAF WT, RAS WT, 3-day, read-out: gIC50
Summary of the method: as §1

CHP-212 = conditions: Homo sapiens, 72 h; CHP-212, RAF WT, NRAS(Q61K), 3-day; read-out: gIC50
Summary of the method: as §1

COR-L23 = conditions: Homo sapiens, 72 h; COR-L23, RAF WT, RAS WT, 3-day; read-out: gIC50
Summary of the method: as §1

CRO-AP2 = conditions: Homo sapiens, 72 h; CRO-AP2, RAF WT, RAS WT, 3-day; read-out: gIC50
Summary of the method: as §1

EKVX = conditions: Homo sapiens, 72 h, RAF WT, RAS WT, 3-day, read-out: gIC50
Summary of the method: as §1

GCT = conditions: Homo sapiens, 72 h, BRAF(V600E), RAS WT, 3-day, read-out: gIC50
Summary of the method: as §1

HMCB = conditions: Homo sapiens, 72 h, RAF WT, RAS WT, 3-day, read-out: gIC50
Summary of the method: as §1

HPAF-II = conditions: Homo sapiens, 72 h, RAF WT, RAS WT, 3-day, read-out: gIC50
Summary of the method: as §1

HuT78 = conditions: Homo sapiens, 72 h; HuT78, RAF WT, RAS WT, 3-day; read-out: gIC50
Summary of the method: as §1

KM-12 = conditions: Homo sapiens, KM12, 72 h; KM-12, RAF WT, RAS WT, 3-day; read-out: gIC50
Summary of the method: as §1

MDA-MB-231 = conditions: Homo sapiens, 72 h; MDA-MB-231, BRAF(G464V), KRAS(G13D), 3-day; read-out: gIC50
Summary of the method: as §1

MDA-MB-468 = conditions: Homo sapiens, 72 h; MDA-MB-468, RAF WT, RAS WT, 3-day; read-out: gIC50
Summary of the method: as §1

MES-SA = conditions: Homo sapiens, 72 h, RAF WT, RAS WT, 3-day, read-out: gIC50
Summary of the method: as §1

NCI-H2030 = conditions: Homo sapiens, 72 h; NCI-H2030, RAF WT, RAS WT, 3-day; read-out: gIC50
Summary of the method: as §1

NCI-H322 = conditions: Homo sapiens, 72 h; NCI-H322, RAF WT, RAS WT, 3-day; read-out: gIC50
Summary of the method: as §1

NCI-H526 = conditions: Homo sapiens, 72 h; NCI-H526, RAF WT, RAS WT, 3-day; read-out: gIC50
Summary of the method: as §1

OE-21 = conditions: Homo sapiens, OE21, 72 h; OE-21, RAF WT, RAS WT, 3-day; read-out: gIC50
Summary of the method: as §1

PC-3 = conditions: Homo sapiens, 72 h; PC-3, RAF WT, RAS WT, 3-day; read-out: gIC50
Summary of the method: as §1

RD-ES = conditions: Homo sapiens, 72 h, RAF WT, RAS WT, 3-day, read-out: gIC50
Summary of the method: as §1

SCC-13 = conditions: Homo sapiens, 72 h; SCC-13, RAF WT, RAS WT, 3-day; read-out: gIC50
Summary of the method: as §1

SF-268 = conditions: Homo sapiens, 72 h; SF-268, RAF WT, RAS WT, 3-day; read-out: gIC50
Summary of the method: as §1

SJRH30 = conditions: Homo sapiens, 72 h; SJRH30, RAF WT, RAS WT, 3-day; read-out: gIC50
Summary of the method: as §1

SR = conditions: Homo sapiens, 72 h, RAF WT, RAS WT, 3-day, read-out: gIC50
Summary of the method: as §1

ST486 = conditions: Homo sapiens, 72 h; ST486, RAF WT, RAS WT, 3-day; read-out: gIC50
Summary of the method: as §1

SW-837 = conditions: Homo sapiens, SW837, 72 h; SW-837, RAF WT, KRAS(G12C), 3-day; read-out: gIC50
Summary of the method: as §1

SW1990 = conditions: Homo sapiens, 72 h; SW1990, RAF WT, RAS WT, 3-day; read-out: gIC50
Summary of the method: as §1

T47D = conditions: Homo sapiens, 72 h, RAF WT, RAS WT, 3-day, read-out: gIC50
Summary of the method: as §1

U251 = conditions: Homo sapiens, U-251, 72 h; U251, RAF WT, RAS WT, 3-day; read-out: gIC50
Summary of the method: as §1

ZR-75-1 = conditions: Homo sapiens, 72 h; ZR-75-1, RAF WT, RAS WT, 3-day; read-out: gIC50
Summary of the method: as §1

## CC(C)(C)c1nc(-c2cccc(NS(=O)(=O)c3c(F)cccc3F)c2F)c(-c2ccnc(N)n2)s1 [dabrafenib]
A673
  IC50: > 10 µM
ARH-77
  IC50: > 10 µM
BFTC-905
  IC50: > 10 µM
BxPc3
  IC50: > 10 µM
C33A
  IC50: > 10 µM
C3A
  IC50: 5.41 µM
CHP-212
  IC50: > 10 µM
COR-L23
  IC50: > 10 µM
CRO-AP2
  IC50: > 10 µM
EKVX
  IC50: > 10 µM
GCT
  IC50: > 10 µM
HMCB
  IC50: > 10 µM
HPAF-II
  IC50: > 10 µM
HuT78
  IC50: 52 nM
KM-12
  IC50: > 10 µM
MDA-MB-231
  IC50: > 10 µM
MDA-MB-468
  IC50: > 10 µM
MES-SA
  IC50: 6.99 µM
NCI-H2030
  IC50: > 10 µM
NCI-H322
  IC50: > 10 µM
NCI-H526
  IC50: > 10 µM
OE-21
  IC50: > 10 µM
PC-3
  IC50: > 10 µM
RD-ES
  IC50: > 10 µM
SCC-13
  IC50: > 10 µM
SF-268
  IC50: > 10 µM
SJRH30
  IC50: > 10 µM
SR
  IC50: > 10 µM
ST486
  IC50: > 10 µM
SW-837
  IC50: > 10 µM
SW1990
  IC50: > 10 µM
T47D
  IC50: > 10 µM
U251
  IC50: > 10 µM
ZR-75-1
  IC50: > 10 µM
